{
  "source": "patent US20060189566A1",
  "about": "“Muscle building agent and preventive or remedy for muscle weakening” (priority 2003, published 2006)",
  "key": {"soleus muscle [1]": {"tested_on": "soleus muscle", "assay": "Protein content of soleus muscle in cast-immobilized rats", "type": "in vivo, rat", "details": "mean ± SD; for Protein Content of Soleus Muscle, Non-immobilized: non-immobilized leg", "method": "As test animals, 13 female 9-week-old rats of Fischer 344 strain (purchased from SLC Inc.) were used. The rats were preliminarily bred for 3 days in a chamber in which the temperature was adjusted to 22° C. under a bright-dark cycle where 07:00 to 19:00 was the bright period, and access to water and feed was ad libitum. After the preliminary breeding, the rats were divided into two groups, and a control feed was given to a control group consisting of 7 rats while a feed comprising CDP-choline (manufactured by Kyowa Hakko Kogyo Co., Ltd.) having the composition shown in Table 1 (hereinafter referred to as a CDP-choline feed) was given to the other group consisting of 6 rats for one day. Then, the right hind limb of each rat was immobilized in plaster cast under anesthesia with pentobarbital, followed by further feeding for one week under the above conditions. Thereafter, the rats were subjected to analysis with regard to the items shown below. Soleus muscle was finely cut in a 1.15% potassium chloride solution and a homogenate thereof was prepared using a glass homogenizer. After the homogenate was appropriately diluted, its protein content was measured using the Protein Assay Kit of Biorad. A calibration curve was prepared using a 2 mg/ml BSA solution."}, "plantar muscle": {"tested_on": "plantar muscle", "assay": "Wet weight of plantar muscle (absolute, atrophy rate, per body weight) in cast-immobilized rats", "type": "in vivo, rat", "details": "mean ± SD; for Atrophy Rate (plantar muscle): decrease of immobilized muscle wet weight relative to non-immobilized taken as 100; for Wet Weight of Plantar Muscle, Immobilized / Wet Weight of Plantar Muscle per Body Weight, Immobilized: immobilized leg", "method": "(§1) As test animals, 13 female 9-week-old rats of Fischer 344 strain (purchased from SLC Inc.) were used. The rats were preliminarily bred for 3 days in a chamber in which the temperature was adjusted to 22° C. under a bright-dark cycle where 07:00 to 19:00 was the bright period, and access to water and feed was ad libitum. After the preliminary breeding, the rats were divided into two groups, and a control feed was given to a control group consisting of 7 rats while a feed comprising CDP-choline (manufactured by Kyowa Hakko Kogyo Co., Ltd.) having the composition shown in Table 1 (hereinafter referred to as a CDP-choline feed) was given to the other group consisting of 6 rats for one day. Then, the right hind limb of each rat was immobilized in plaster cast under anesthesia with pentobarbital, followed by further feeding for one week under the above conditions. Thereafter, the rats were subjected to analysis with regard to the items shown below. In the test, two muscles, i.e., plantar muscle and soleus muscle located at the lower hind limbs of a rat, were used. Soleus muscle is a representative slow skeletal muscle in lower limbs where 80 to 90% of total muscle fibers are slow muscle fibers, and plantar muscle is a typical fast skeletal muscle where about 95% of total muscle fibers are fast muscle fibers. The rat was killed after body weight measurement, and the soleus muscle and plantar muscle of both the right and left lower hind limbs were quickly excised and washed with a physiological saline solution. After extraneous connective tissues, tendons, nerves, etc. were removed, the muscle wet weights of soleus muscle and plantar muscle were measured. The relative wet weight of muscle immobilized in a cast was determined for each rat based on the wet weight of muscle which was not immobilized in a cast, taken as 100, and the decrease in muscle weight was expressed as the atrophy rate. The wet weight of muscle relative to body weight was calculated by measuring the wet weight of both right and left soleus muscles and plantar muscles and dividing the obtained value by body weight. The wet weight of muscle per body weight excludes the influence of the difference in body weight on each muscle wet weight and reflects the muscle amount per body weight. The wet weight of soleus muscle per body weight is shown in Table 7, and the wet weight of plantar muscle per body weight is shown in Table 8."}, "soleus muscle [2]": {"tested_on": "soleus muscle", "assay": "Wet weight of soleus muscle (absolute, atrophy rate, per body weight) in cast-immobilized rats", "type": "in vivo, rat", "details": "mean ± SD; for Wet Weight of Soleus Muscle, Immobilized / Wet Weight of Soleus Muscle per Body Weight, Immobilized: immobilized leg; for Wet Weight of Soleus Muscle, Immobilized / Wet Weight of Soleus Muscle, Non-immobilized: 1 wt % CDP-choline feed; for Wet Weight of Soleus Muscle, Non-immobilized / Wet Weight of Soleus Muscle per Body Weight, Non-immobilized: non-immobilized leg", "method": "as §1"}, "C2C12 cells": {"tested_on": "C2C12 cells", "assay": "Increase of intracellular protein in differentiated C2C12 cells (Methylene Blue method)", "type": "cell-based, mouse", "details": "3 days; for Increase Rate of Intracellular Protein: control d0 = 0, control d3 = 100", "method": "C2C12 cells were purchased from Dainippon Pharmaceutical Co., Ltd. Culturing was carried out according to the method of Craig, et al. [Methods in Cell Biology, 52, 85 (1998)]. A medium for growth was prepared by addition of 50 ml of FBS (manufactured by Gibco; Cat. No. 10099-141) and 5 ml of penicillin-streptomycin (manufactured by Gibco; Cat. No. 15140-122) to 500 ml of D-MEM medium (manufactured by Gibco; Cat. No. 11885-084). A medium for differentiation was prepared by addition of 10 ml of inactivated horse serum (manufactured by Gibco; Cat. No. 26050-088) and 5 ml of penicillin-streptomycin to 500 ml of the D-MEM medium. C2C12 cells were seeded and cultured in a 75-cm^2 flask containing 15 ml of the medium for growth and were subcultured before reaching confluence. Culturing was carried out in a CO2 incubator under 5% CO2 concentration and 100% relative humidity. The cell suspension diluted to 5×10^4 cells/ml with the medium for growth was added to each well of type I collagen-coated 96-well plate (Iwaki; Cat. No. 4860-010) in an amount of 100 μl. After confirming that the growth was uniform, the medium was replaced by the differentiation medium. Myogenesis was confirmed under a microscope after culturing for 3 days, and then a CDP-choline-containing PBS (−) solution was added to the medium until its final concentration reached 1 mg/ml or 0.1 mg/ml, followed by further culturing. […] The amount of intracellular protein was measured according to the method of Oliver, et al. [Journal of Cell Science, 92, 513 (1989)]. […] After the solution was appropriately diluted, the absorption at 650 nm was measured using a microplate reader. To determine the rate of increase of intracellular protein, the value of the test group (group to which CDP-choline was added) after culturing for 3 days was calculated based on the value before addition of CDP-choline (do) taken as 0 and the concentration of intracellular protein in the control group (group to which no CDP-choline was added) after culturing for 3 days (d3) taken as 100."}, "soleus muscle [3]": {"tested_on": "soleus muscle", "assay": "Degradation rate of muscle plasma protein of soleus muscle (tyrosine release)", "type": "in vivo, rat", "details": "2 hours incubation in Krebs-Henseleit bicarbonate buffer, mean ± SD; for Decomposition Rate of Muscle Plasma Protein of Soleus Muscle, Tyrosine, Non-immobilized: non-immobilized leg", "method": "As test animals, 13 female 9-week-old rats of Fischer 344 strain (purchased from SLC Inc.) were used. The rats were preliminarily bred for 3 days in a chamber in which the temperature was adjusted to 22° C. under a bright-dark cycle where 07:00 to 19:00 was the bright period, and access to water and feed was ad libitum. After the preliminary breeding, the rats were divided into two groups, and a control feed was given to a control group consisting of 7 rats while a feed comprising CDP-choline (manufactured by Kyowa Hakko Kogyo Co., Ltd.) having the composition shown in Table 1 (hereinafter referred to as a CDP-choline feed) was given to the other group consisting of 6 rats for one day. Then, the right hind limb of each rat was immobilized in plaster cast under anesthesia with pentobarbital, followed by further feeding for one week under the above conditions. Thereafter, the rats were subjected to analysis with regard to the items shown below. Weighed soleus muscle was pre-incubated for 30 minutes in a Krebs-Henseleit bicarbonate buffer under aeration with […]. The muscle was then transferred to fresh Krebs-Henseleit bicarbonate buffer, and incubated for 2 hours. The concentration of tyrosine in the buffer was measured, whereby the degradation rate of muscle plasma protein was calculated. The concentration of tyrosine was measured by the fluorescence method of […], et al. using 1-nitroso-2-naphthol [J. Lab. Clin. Med., 50, 733 (1957)] (excitation wavelength: 435 nm; fluorescence wavelength: 545 nm). In order to prepare a calibration curve, a 5 nmol/ml tyrosine solution prepared as a standard solution was appropriately diluted and the relationship between its concentration and fluorescence intensity was plotted. By using the calibration curve thus prepared, the concentration of tyrosine in the buffer tested was determined from its fluorescence intensity."}},
  "data": [
    {"smiles": "C[N+](C)(C)CCOP(=O)(O)OP(=O)([O-])OC[C@H]1O[C@@H](n2ccc(N)nc2=O)[C@H](O)[C@@H]1O", "note": "[CDP-Choline, Cytidine diphosphate choline]", "values": [
      {"measurement": "Protein Content of Soleus Muscle, Immobilized", "setting": "soleus muscle [1]; immobilized leg", "value": "128.4 ± 10.0", "unit": "mg protein/g tissue"},
      {"measurement": "Protein Content of Soleus Muscle, Non-immobilized", "setting": "soleus muscle [1]", "value": "173.2 ± 15.0", "unit": "mg protein/g tissue"},
      {"measurement": "Protein Content of Soleus Muscle, Non-immobilized", "setting": "soleus muscle [1]; listed as CDP-choline", "value": "significantly higher than the control group"},
      {"measurement": "Atrophy Rate (plantar muscle)", "setting": "plantar muscle", "value": "15.8 ± 5.8", "unit": "%"},
      {"measurement": "Atrophy Rate (plantar muscle)", "setting": "plantar muscle; listed as CDP-choline", "value": "significantly lower"},
      {"measurement": "Wet Weight of Plantar Muscle, Immobilized", "setting": "plantar muscle; 1 wt % CDP-choline feed", "value": "104.0 ± 2.7", "unit": "mg"},
      {"measurement": "Wet Weight of Plantar Muscle, Immobilized", "setting": "plantar muscle; 1 wt % CDP-choline feed, listed as CDP-choline", "value": "significantly higher than the control group"},
      {"measurement": "Wet Weight of Plantar Muscle per Body Weight, Immobilized", "setting": "plantar muscle", "value": "0.731 ± 0.029", "unit": "mg/g body weight"},
      {"measurement": "Wet Weight of Plantar Muscle per Body Weight, Immobilized", "setting": "plantar muscle; listed as CDP-choline", "value": "significantly higher than the control group"},
      {"measurement": "Wet Weight of Plantar Muscle, Non-immobilized", "setting": "plantar muscle; non-immobilized leg, 1 wt % CDP-choline feed", "value": "123.8 ± 7.4", "unit": "mg"},
      {"measurement": "Wet Weight of Plantar Muscle per Body Weight, Non-immobilized", "setting": "plantar muscle; non-immobilized leg", "value": "0.870 ± 0.052", "unit": "mg/g body weight"},
      {"measurement": "Atrophy Rate (soleus muscle)", "setting": "soleus muscle [2]; decrease of immobilized muscle wet weight relative to non-immobilized taken as 100", "value": "21.0 ± 6.5", "unit": "%"},
      {"measurement": "Wet Weight of Soleus Muscle, Immobilized", "setting": "soleus muscle [2]", "value": "61.0 ± 5.2", "unit": "mg"},
      {"measurement": "Wet Weight of Soleus Muscle, Immobilized", "setting": "soleus muscle [2]; listed as CDP-choline", "value": "no difference in wet weight of muscle"},
      {"measurement": "Wet Weight of Soleus Muscle per Body Weight, Immobilized", "setting": "soleus muscle [2]", "value": "0.428 ± 0.027", "unit": "mg/g body weight"},
      {"measurement": "Wet Weight of Soleus Muscle per Body Weight, Immobilized", "setting": "soleus muscle [2]; listed as CDP-choline", "value": "no difference"},
      {"measurement": "Wet Weight of Soleus Muscle, Non-immobilized", "setting": "soleus muscle [2]", "value": "77.2 ± 3.9", "unit": "mg"},
      {"measurement": "Wet Weight of Soleus Muscle, Non-immobilized", "setting": "soleus muscle [2]; listed as CDP-choline", "value": "no difference in wet weight of muscle"},
      {"measurement": "Wet Weight of Soleus Muscle per Body Weight, Non-immobilized", "setting": "soleus muscle [2]", "value": "0.542 ± 0.030", "unit": "mg/g body weight"},
      {"measurement": "Wet Weight of Soleus Muscle per Body Weight, Non-immobilized", "setting": "soleus muscle [2]; listed as CDP-choline", "value": "no difference"},
      {"measurement": "Increase Rate of Intracellular Protein", "setting": "C2C12 cells; CDP-choline 0.1 mg/ml", "value": 134},
      {"measurement": "Increase Rate of Intracellular Protein", "setting": "C2C12 cells; CDP-choline 1 mg/ml", "value": 141},
      {"measurement": "Amount of intracellular protein in C2C12 cells", "setting": "C2C12 cells; CDP-choline 0.1 and 1 mg/ml", "value": "increased in a CDP-choline concentration dependent manner"},
      {"measurement": "Decomposition Rate of Muscle Plasma Protein of Soleus Muscle, Tyrosine, Immobilized", "setting": "soleus muscle [3]; immobilized leg", "value": "322.1 ± 98.0", "unit": "nmol/g tissue/2 hours"},
      {"measurement": "Decomposition Rate of Muscle Plasma Protein of Soleus Muscle, Tyrosine, Non-immobilized", "setting": "soleus muscle [3]", "value": "135.5 ± 50.1", "unit": "nmol/g tissue/2 hours"},
      {"measurement": "Decomposition Rate of Muscle Plasma Protein of Soleus Muscle, Tyrosine, Non-immobilized", "setting": "soleus muscle [3]; listed as CDP-choline", "value": "significantly lower than the control group"}
    ]}
  ]
}
